The source of these data is PMC6374029 (Antiviral Research, 2018).

Broadly, the half-life is how long it takes for the measured level to halve.

The nature of one series: in vitro. The note with it: human.
A further series concerns Ebola virus. The note with it: in vivo; cited from earlier work.
In another series the test system is EBOV minigenome. Type of series: cell-based, Ebola virus.
For series [1] the following is noted: human, in vivo; cited from earlier work.

Turning to `CCN(CC)Cc1cc(Nc2ccnc3cc(Cl)ccc23)ccc1O` [Amodiaquine, amodiaquine], the CC50 in “in vitro” worked out at 79 µM. The same compound came in with a Selectivity index in the series on Huh7 cells of 37. For the same compound, the case mortality with Ebola virus was 50%. In the case of `COc1c(C)c2c(c(O)c1C/C=C(\C)CCC(=O)O)C(=O)OC2` [mycophenolic acid], the “activity of EBOV minigenome (firefly luciferase normalized to renilla)” value in the series on EBOV minigenome is “effectively blocked the signal from the minigenome”. As for `CCNCc1cc(Nc2ccnc3cc(Cl)ccc23)ccc1O` [desethyl-amodiaquine], the half-life in series [1] was 220 to 432 h.
